Structures are written as SMILES.

The test system of assay [1] is symmetric di-methyl arginine in Z-138 cells. Put plainly: Z-138 Methylation Assay (In Cell Western for symmetric di-methyl arginine). In kind it is cell-based. Particulars: Homo sapiens, 96 hours incubation, read-out: ICW EC50. An excerpt:
Z-138 suspension cells were purchased from ATCC (American Type Culture Collection, Manassas, Va.). RPMI/Glutamax medium, penicillin-streptomycin, heat inactivated fetal bovine serum, and D-PBS were purchased from Life Technologies, Grand Island, N.Y., USA. Odyssey blocking buffer, 800 CW goat anti-rabbit IgG (H+L) antibody, and Licor Odyssey infrared scanner were purchased from Licor Biosciences, Lincoln, Nebr., USA. Symmetric di-methyl arginine antibody was purchased from EMD Millipore, Billerica, Mass., USA. 16% Paraformaldehyde was purchased from Electron Microscopy Sciences, Hatfield, Pa., USA.
Z-138 suspension cells were maintained in growth medium (RPMI 1640 supplemented with 10% v/v heat inactivated fetal bovine serum and 100 units/mL penicillin-streptomycin) and cultured at 37° C. under 5% CO2.
Cell Treatment, in Cell Western (ICW) for Detection of Symmetric Di-Methyl Arginine and DNA Content.
Z-138 cells were seeded in assay medium at a concentration of 50,000 cells per mL to a 384-well cell culture plate with 50 μL per well. Compound (100 nL) from 384 well source plates was added directly to 384 well cell plate. Plates were incubated at 37° C., 5% CO2 for 96 hours. After four days of incubation, 40 μL of cells from incubated plates were added to poly-D-lysine coated 384 well culture plates (BD Biosciences 356697). Plates were incubated at room temperature for 30 minutes then incubated at 37° C., 5% CO2 for 5 hours. After the incubation, 40 μL per well of 8% paraformaldehyde in PBS (16% paraformaldahyde was diluted to 8% in PBS) was added to each plate and incubated for 30 minutes. Plates were transferred to a Biotek 405 plate washer and washed 5 times with 100 μL per well of wash buffer (1×PBS with 0.1% Triton X-100 (v/v)). Next 30 μL per well of Odyssey blocking buffer were added to each plate and incubated 1 hour at room temperature. Blocking buffer was removed and 20 μL per well of primary antibody was added (symmetric di-methyl arginine diluted 1:100 in Odyssey buffer with 0.1% Tween 20 (v/v)) and plates were incubated overnight (16 hours) at 4° C. Plates were washed 5 times with 100 μL per well of wash buffer. Next 20 μL per well of secondary antibody was added (1:200 800 CW goat anti-rabbit IgG (H+L) antibody, 1:1000 DRAQ5 (Biostatus limited) in Odyssey buffer with 0.1% Tween 20 (v/v)) and incubated for 1 hour at room temperature. The plates were washed 5 times with 100 μL per well wash buffer then 1 time with 100 μL per well of water. Plates were allowed to dry at room temperature then imaged on the Licor Odyssey machine which measures integrated intensity at 700 nm and 800 nm wavelengths. Both 700 and 800 channels were scanned.
First, the ratio for each well was determined by:
Each plate included fourteen control wells of DMSO only treatment (minimum inhibition) as well as fourteen control wells for maximum inhibition treated with 3 μM of a reference compound (Background wells). The average of the ratio values for each control type was calculated and used to determine the percent inhibition for each test well in the plate. Reference compound was serially diluted three-fold in DMSO for a total of nine test concentrations, beginning at 3 μM. Percent inhibition was determined and IC50 curves were generated using triplicate wells per concentration of compound.

In a further assay the test system is Z-138 cell line. Put plainly: Z-138 Proliferation Assay (Cell Titer Glo). It counts as cell-based. As to conditions: Homo sapiens, 120 h; Z-138 cells, 5 days incubation, top concentration 20 μM. An excerpt:
Z-138 Proliferation Assay
Z-138 suspension cells were purchased from ATCC (American Type Culture Collection, Manassas, Va.). RPMI/Glutamax medium, penicillin-streptomycin, heat inactivated fetal bovine serum were purchased from Life Technologies, Grand Island, N.Y., USA. V-bottom polypropylene 384-well plates were purchased from Greiner Bio-One, Monroe, N.C., USA. Cell culture 384-well white opaque plates were purchased from Perkin Elmer, Waltham, Mass., USA. Cell-Titer Glo® was purchased from Promega Corporation, Madison, Wis., USA. SpectraMax M5 plate reader was purchased from Molecular Devices LLC, Sunnyvale, Calif., USA.
Z-138 suspension cells were maintained in growth medium (RPMI 1640 supplemented with 10% v/v heat inactivated fetal bovine serum and cultured at 37° C. under 5% CO2. Under assay conditions, cells were incubated in assay medium (RPMI 1640 supplemented with 10% v/v heat inactivated fetal bovine serum and 100 units/mL penicillin-streptomycin) at 37° C. under 5% CO2.
For the assessment of the effect of compounds on the proliferation of the Z-138 cell line, exponentially growing cells were plated in 384-well white opaque plates at a density of 10,000 cells/ml in a final volume of 50 μl of assay medium. A compound source plate was prepared by performing triplicate nine-point 3-fold serial dilutions in DMSO, beginning at 10 mM (final top concentration of compound in the assay was 20 μM and the DMSO was 0.2%). A 100 nL aliquot from the compound stock plate was added to its respective well in the cell plate. […] After addition of compounds, assay plates were incubated for 5 days at 37° C., 5% CO2, relative humidity >90%. Cell viability was measured by quantitation of ATP present in the cell cultures, adding 35 μl of Cell Titer Glo® reagent to the cell plates. Luminescence was read in the SpectraMax M5 microplate reader. The concentration of compound inhibiting cell viability by 50% was determined using a 4-parametric fit of the normalized dose response curves.
(In ATP-based viability assays light output follows the ATP content of the culture.)

The target in a further assay is T1, PRMT5/MEP50 (Homo sapiens, UniProt O14744).
T1 construct: Flag-PRMT5; made in house; host or cells: Spodoptera frugiperda (SF9) insect cells, baculovirus
Briefly: PRMT5 Biochemical Assay (PRMT5/MEP50 enzyme assay on peptide substrate, 3H-SAM Flashplate). As to conditions: PRMT5/MEP50 4 nM, 3H-SAM 75 nM, peptide 40 nM. The text has this: S-adenosylmethionine (SAM), S-adenosylhomocysteine (SAH), bicine, KCl, Tween20, dimethylsulfoxide (DMSO), bovine skin gelatin (BSG), and Tris(2-carboxyethyl)phosphine hydrochloride solution (TCEP) were purchased from Sigma-Aldrich at the highest level of purity possible. ^3H-SAM was purchase from American Radiolabeled Chemicals with a specific activity of 80 C1/mmol. 384-well streptavidin Flashplates were purchased from PerkinElmer.
Peptide representative of human histone H4 residues 1-15 was synthesized with a C-terminal linker-affinity tag motif and a C-terminal amide cap by 21st Century Biochemicals.
The amplified genes were sublconed into pENTR/D/TEV (Life Technologies) and subsequently transferred by Gateway™ attL×attR recombination to pDEST8 baculvirus expression vector (Life Technologies).
Protein over-expression was accomplished by infecting exponentially growing Spodoptera frugiperda (SF9) cell culture at 1.2×10^6 cell/ml with a 5000 fold dilution of BIIC stock. Infections were carried out at 27° C. for 72 hours, harvested by centrifugation, and stored at −80° C. for purification.
Flag-PRMT5/6His-MeP50 was eluted with 300 mM Imidazole in the same buffer.
General Procedure for PRMT5/MEP50 Enzyme Assays on Peptide Substrates.
The assays were all performed in a buffer consisting of 20 mM Bicine (pH=7.6), 1 mM TCEP, 0.005% BSG, and 0.002% Tween20, prepared on the day of use. […] DMSO (1 ul) was added to Columns 11, 12, 23, 24, rows A-H for the maximum signal control and 1 ul of SAH, a known product and inhibitor of PRMT5/MEP50, was added to columns 11, 12, 23, 24, rows I-P for the minimum signal control. A cocktail (40 ul) containing the PRMT5/MEP50 enzyme and the peptide was added by Multidrop Combi (Thermo-Fisher). The compounds were allowed to incubate with PRMT5/MEP50 for 30 min at 25 degrees Celsius, then a cocktail (10 ul) containing ^3H-SAM was added to initiate the reaction (final volume=51 ul). […] The assays were stopped by the addition of non-radioactive SAM (10 ul) to a final concentration of 600 uM, which dilutes the ^3H-SAM to a level where its incorporation into the peptide substrate is no longer detectable. 50 ul of the reaction in the 384-well polypropylene plate was then transferred to a 384-well Flashplate and the biotinylated peptides were allowed to bind to the streptavidin surface for at least 1 hour before being washed three times with 0.1% Tween20 in a Biotek ELx405 plate washer. The plates were then read in a PerkinElmer TopCount plate reader to measure the quantity of ^3H-labeled peptide bound to the Flashplate surface, measured as disintegrations per minute (dpm) or alternatively, referred to as counts per minute (cpm).
Where dpm=disintegrations per minute, cmpd=signal in assay well, and min and max are the respective minimum and maximum signal controls.
Where top and bottom are the normally allowed to float, but may be fixed at 100 or 0 respectively in a 3-parameter fit. The Hill Coefficient normally allowed to float but may also be fixed at 1 in a 3-parameter fit. Y is the % inhibition and X is the compound concentration.

T1 sequence (O14744 with tags, fused parts or gaps): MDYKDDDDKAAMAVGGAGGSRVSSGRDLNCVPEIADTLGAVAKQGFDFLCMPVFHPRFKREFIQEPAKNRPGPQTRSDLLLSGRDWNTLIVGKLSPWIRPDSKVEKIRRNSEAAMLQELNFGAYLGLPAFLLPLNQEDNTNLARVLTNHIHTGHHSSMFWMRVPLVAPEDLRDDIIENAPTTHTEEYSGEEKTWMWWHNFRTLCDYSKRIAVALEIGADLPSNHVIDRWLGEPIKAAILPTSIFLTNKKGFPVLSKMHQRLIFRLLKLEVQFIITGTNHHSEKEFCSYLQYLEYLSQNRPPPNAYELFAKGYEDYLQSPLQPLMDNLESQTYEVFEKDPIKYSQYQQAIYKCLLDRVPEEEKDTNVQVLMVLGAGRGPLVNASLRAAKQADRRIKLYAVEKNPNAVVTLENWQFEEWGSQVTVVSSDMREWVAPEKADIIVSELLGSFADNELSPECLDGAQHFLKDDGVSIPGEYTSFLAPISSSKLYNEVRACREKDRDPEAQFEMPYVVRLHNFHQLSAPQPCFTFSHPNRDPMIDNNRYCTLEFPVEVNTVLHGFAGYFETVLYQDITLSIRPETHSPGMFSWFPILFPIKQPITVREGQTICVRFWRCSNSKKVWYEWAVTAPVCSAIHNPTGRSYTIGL
T1 sequence (Q9BQA1 with tags, fused parts or gaps partner limits assumed): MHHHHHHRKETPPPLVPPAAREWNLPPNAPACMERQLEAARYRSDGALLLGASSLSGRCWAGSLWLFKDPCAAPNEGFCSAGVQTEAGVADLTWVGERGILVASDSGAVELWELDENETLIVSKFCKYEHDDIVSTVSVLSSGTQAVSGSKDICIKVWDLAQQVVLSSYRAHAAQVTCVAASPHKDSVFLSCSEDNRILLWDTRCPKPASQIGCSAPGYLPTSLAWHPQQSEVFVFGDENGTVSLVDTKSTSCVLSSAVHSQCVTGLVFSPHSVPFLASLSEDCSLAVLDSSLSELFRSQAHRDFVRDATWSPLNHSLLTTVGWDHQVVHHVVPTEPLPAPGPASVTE

One may read the EC50 as the midpoint of the concentration-response curve. One may read the IC50 as the point on the concentration scale where inhibition reaches its midpoint. Consider `O=C(CCc1nc2ccccc2[nH]1)NC[C@H](O)CN1CCc2ccccc2C1` [Compound 175, (S)-3-(1H-benzo[d]imidazol-2-yl)-N-(3-(3,4-dihydroisoquinolin-2(1H)-yl)-2-hydroxypropyl)propanamide], for which the EC50 was under 0.1 µM in assay [1] and 0.101 to 1 µM in the assay with Z-138 cell line. In addition, at PRMT5/MEP50, the concentration for half-maximal inhibition (IC50) was under 0.1 µM.

Values taken from US20190083482A1, “PRMT5 INHIBITORS AND USES THEREOF” (Epizyme, Inc., priority 2017, published 2019).
